The structures appear in SMILES notation.

For orientation: IC50 means the concentration that gives 50% inhibition.

T1 sequence (Q16539 whole entry): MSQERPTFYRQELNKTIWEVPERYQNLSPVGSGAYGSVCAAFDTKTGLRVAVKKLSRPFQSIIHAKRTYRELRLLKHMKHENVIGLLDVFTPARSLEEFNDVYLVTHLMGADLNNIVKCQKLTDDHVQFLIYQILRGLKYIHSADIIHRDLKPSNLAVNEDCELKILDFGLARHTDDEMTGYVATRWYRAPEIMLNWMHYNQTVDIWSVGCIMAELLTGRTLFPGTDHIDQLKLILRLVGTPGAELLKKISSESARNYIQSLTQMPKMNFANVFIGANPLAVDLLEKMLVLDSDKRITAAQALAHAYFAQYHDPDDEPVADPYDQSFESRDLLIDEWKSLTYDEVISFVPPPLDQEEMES

The assay addresses T1, human p38alfa (SAPKa) enzyme (Homo sapiens, UniProt Q16539).
T1 construct: purchased University of Dundee
The assay is described as follows: p38 enzymatic activity inhibition assay (FRET, ATF2 substrate). Type of assay: biochemical. The note with it: 1 h pre-incubation; ATF2 0.62 μM, ATP 60 μM; 1 h at 25° C.; read-out: p38α IC50. The method, then: Enzymatic activity assay was performed in 96-well microtiter plates (Corning, catalog number #3686) using a total volume of 50 μl of an assay buffer composed of 50 mM HEPES pH 7.5, 10 mM MgCl2, 1.75 mM Na3VO4.
Various concentrations of the test compound or vehicle controls were pre-incubated for one hour with 0.055 μg/ml of the human p38alfa (SAPKa) enzyme (obtained from University of Dundee). The reaction started by addition of biotinylated ATF2 substrate and ATP in concentrations around their Km values (final concentration 0.62 μM and 60 μM respectively) and took place for one hour at 25° C. Addition of the detection reagents, streptavidin-XL665 and anti-phosphoresidue antibody coupled to Europium cryptate, caused the juxtaposition of the cryptate and the XL665 fluorophore, resulting in fluorescence energy transfer (FRET). The FRET intensity depends on the amount of bounded cryptate antibody, which is proportional to the extent of substrate phosphorylation. FRET intensity was measured using Victor 2V spectrofluorometer. Data were analyzed by non-linear regression (Hill equation) to generate a dose-response curve. The calculated IC50 value is the concentration of the test compound that caused a 50% decrease in the maximal FRET intensity.
For `O=C(O)c1cc(-c2ccc(F)cc2F)c2cc[n+]([O-])c(-c3c(F)cccc3F)c2n1` [Example 2, 4-(2,4-Difluorophenyl)-8-(2,6-difluorophenyl)-1,7-naphthyridine-2-carboxylic acid 7-oxide], the 50% inhibitory concentration (IC50) came to 22 nM.

Take `O=c1cc(-c2ccc(F)cc2Cl)c2cc[n+]([O-])c(-c3c(F)cccc3F)c2[nH]1` [Example 8, 4-(2-Chloro-4-fluorophenyl)-8-(2,6-difluorophenyl)-1,7-naphthyridin-2(1H)-one 7-oxide]: the IC50 was 6 nM.

`CN(C)CCNc1cc(-c2ccc(F)cc2Cl)c2cc[n+]([O-])c(-c3c(F)cccc3F)c2n1` [Example 10, N′-[4-(2-Chloro-4-fluorophenyl)-8-(2,6-difluorophenyl)-7-oxido-1,7-naphthyridin-2-yl]-N,N-dimethylethane-1,2-diamine]: the IC50 came out at 14 nM.

In the case of `O=c1cc(-c2ccc(F)cc2Cl)c2cc[n+]([O-])c(-c3c(Cl)cccc3Cl)c2[nH]1` [Example 12, 4-(2-Chloro-4-fluorophenyl)-8-(2,6-dichlorophenyl)-1,7-naphthyridin-2(1H)-one 7-oxide], the IC50 is 3.3 nM.

`O=c1cc(-c2ccccc2Cl)c2ccnc(-c3c(Cl)cccc3Cl)c2[nH]1` [Example 17, 4-(2-Chlorophenyl)-8-(2,6-dichlorophenyl)-1,7-naphthyridin-2(1H)-one]: the IC50 amounted to 13 nM.

`O=c1cc(-c2ccccc2Cl)c2cc[n+]([O-])c(-c3c(Cl)cccc3Cl)c2[nH]1` [Example 18, 4-(2-Chlorophenyl)-8-(2,6-dichlorophenyl)-1,7-naphthyridin-2(1H)-one 7-oxide]: the IC50 was determined as 15 nM.

Turning to `CNc1cc(-c2ccccc2Cl)c2cc[n+]([O-])c(-c3c(Cl)cccc3Cl)c2n1` [Example 19, 4-(2-Chlorophenyl)-8-(2,6-dichlorophenyl)-N-methyl-1,7-naphthyridin-2-amine 7-oxide], the half-inhibitory concentration (IC50) turned out to be 8 nM.

Regarding `CN(C)c1cc(-c2ccccc2Cl)c2cc[n+]([O-])c(-c3c(Cl)cccc3Cl)c2n1` [Example 20, 4-(2-Chlorophenyl)-8-(2,6-dichlorophenyl)-N,N-dimethyl-1,7-naphthyridin-2-amine 7-oxide], the IC50 stood at 12 nM.

For `CS(=O)(=O)Nc1cc(-c2ccccc2Cl)c2cc[n+]([O-])c(-c3c(Cl)cccc3Cl)c2n1` [Example 21, N-[4-(2-Chlorophenyl)-8-(2,6-dichlorophenyl)-7-oxido-1,7-naphthyridin-2-yl]methanesulfonamide], the IC50 amounted to 66 nM.

In the case of `Nc1cc(-c2ccccc2Cl)c2cc[n+]([O-])c(-c3c(Cl)cccc3Cl)c2n1` [Example 22, 4-(2-Chlorophenyl)-8-(2,6-dichlorophenyl)-1,7-naphthyridin-2-amine 7-oxide], the IC50 worked out at 85 nM.

Regarding `[O-][n+]1ccc2c(-c3ccc(F)cc3Cl)ncnc2c1-c1c(F)cccc1F` [Example 26, 4-(2-Chloro-4-fluorophenyl)-8-(2,6-difluorophenyl)pyrido[3,4-d]pyrimidine 7-oxide], the IC50 is 35 nM.

For `[O-][n+]1ccc2c(-c3ccc(F)cc3Cl)ncnc2c1-c1c(Cl)cccc1Cl` [Example 30, 4-(2-Chloro-4-fluorophenyl)-8-(2,6-dichlorophenyl)pyrido[3,4-d]pyrimidine 7-oxide], the IC50 is 28 nM.

Regarding `Nc1nc(-c2ccc(F)cc2Cl)c2cc[n+]([O-])c(-c3c(Cl)cccc3Cl)c2n1` [Example 32, 4-(2-Chloro-4-fluorophenyl)-8-(2,6-dichlorophenyl)pyrido[3,4-d]pyrimidin-2-amine 7-oxide], the IC50 amounted to 34 nM.

The values are drawn from patent US8334294B2, “4,8-diphenyl-polyazanaphthalene derivatives” (Almirall, S.A., priority 2007, dated 2012).
